The subject of one test is HL260 cell. Briefly: Apoptosis induction / DNA fragments percentage in HL260 cells. The test is classed as cell-based. Conditions: for DNA fragments percentage: n 4. From the text:
(§1) In order to investigate catalpol and the Rehmannia glutinasa Libosch. extract according to the present invention for their effect of inducing apoptosis in leukemia cells as well as the mechanism, bone marrows and HL260 cells from 15 patients with acute nonlymphocytic leukemia (ANLL) were mixed with catalpol and co-cultivated for 24 hr, and then different test methods including cytomorphologic means, DNA gel electrophoresis and DNA fragments percentage analysis were adopted to observe the effect on apoptosis in leukemia cells.

Test [1] relates to acute nonlymphocytic leukemia (ANLL) cell. Briefly: Apoptosis induction / DNA fragments percentage in ANLL bone marrow cells. The test is classed as cell-based, human. The settings on record: for DNA fragments percentage: n 15.
Excerpt: as §1

The subject of test [2] is Spontaneous Hyperglycemic KK Mice. The test is described as follows: Blood glucose in spontaneous hyperglycemic KK mice (type II diabetes model). The test is classed as in vivo. The settings on record: 500 mg/kg intragastric once a day. As to the method:
Forty male and female KK diabetes mice weighing about 40 g were separately housed at a temperature of […] and fed on a fat-heavy diet and arbitrary amount of water. After being fast food but not fast water for 2 hr, 10 μl blood collected from the tail veins was tested for blood glucose values, and mice having blood glucose value ≧8.0 mmol/L were selected.
The mice obtained from the above step were randomly divided into groups labeled as model control, low-dose A, mid-dose A, high-dose A, DD, B, C, D, E and F. Subsequently, intragastric administration was performed once a day for 15 consecutive days. Blood glucose values before administration, and at one hour after administration for 5 days, 10 day and 15 days (fast food but not fast water for two hours after last administration) were tested respectively, and the results were as follows: […]

In test [3] the test system is Alloxan-Induced Hyperglycemic Mice. Briefly: Blood glucose in alloxan-induced hyperglycemic mice. Conditions: 500 mg/Kg intragastric daily. The test is classed as in vivo, Kunming mice. The procedure:
Male Kunming mice weighing 25-29 g
Raising condition: The mice were housed in a laboratory animal room of 2nd grade that was ventilated regularly with the temperature controlled at 20-24° C.
Male mice were selected and firstly fasted for 6 hr, and alloxan was injected into tail vein at a dose of 60 mg/kg. After 72 hr, the mice having blood glucose values […] were selected as experimental animals and grouped.
The alloxan-induced hyperglycemic mice were randomly divided into groups labeled as normal control, model control, low-dose A, mid-dose A, high-dose A, DD, B, C, D, E and F. Subsequently, intragastric administration was performed for 15 consecutive days. 16 hours after the last administration, the mice were fasted for 8 hr. Blood glucose values before administration, and at 1 hour after administration for 5 days, 10 day and 15 days were tested respectively on blood collected from the inguinal vein, and the results were as follows: […]

The next test relates to bcl22. Briefly: Immunohistochemical protein expression of gene bcl22 in bone marrow cells. The test is classed as cell-based, human. Conditions: bone marrow cells before and after treatment; immunohistochemical method.
Excerpt: as §1

Setting [4] is: table section 'after treating with the extract for 24 hrs', 10 μg · ml^−1.
The mark [5] stands for this setting: table section 'at 24 hrs after treatment with catalpol', 10 μg · ml^−1.
Where [6] appears, read: table section 'after treating with the extract for 24 hrs', 10 − 7 mol · L^−1.
Where [7] appears, read: table section 'at 24 hrs after treatment with catalpol', 10 − 7 mol · L^−1.
Setting [8] is: co-cultivated 24 hr, cytomorphology, DNA gel electrophoresis, DNA fragments percentage.

Marks after values point to notes of the source that are not given here.

Take `Nc1ccn([C@@H]2O[C@H](CO)[C@@H](O)[C@@H]2O)c(=O)n1` [Ara2c]: the DNA fragments percentage was found to be 27.0 ± 1.1% in the test on HL260 cell (setting [4]), 28.2 ± 1.4% with HL260 cell (setting [5]), 39.7 ± 7.9% in test [1] (setting [4]) and 40.1 ± 8.2% in test [1] (setting [5]).
Take `CN(C)C(=N)NC(=N)N` [DD, dimethyl diguanidine]: the “Blood Glucose Value” in test [2] (0 day (before administration)) is 13.36 ± 2.85 mmol/L; in test [2] (5 days) it was 11.16 ± 3.19 mmol/L; in test [2] (10 days) it was 10.03 ± 2.11 mmol/L; in test [2] (15 days), 8.84 ± 4.51 mmol/L; in test [3] (0 day (before administration)), 19.7 mmol/L; in test [3] (5 days), 12.5** mmol/L. For the same compound, the “Blood Glucose Value” in test [3] (10 days) is 13.2** mmol/L; in test [3] (15 days), 14.0** mmol/L.
With `COC(=O)C[C@](O)(CCCC(C)(C)O)C(=O)O[C@@H]1C(OC)=C[C@]23CCCN2CCc2cc4c(cc2[C@H]13)OCO4` [HHT], the DNA fragments percentage was found to be 25.3 ± 1.0% with HL260 cell (setting [6]), 26.1 ± 1.2% in the test on HL260 cell (setting [7]), 36.2 ± 5.0% in test [1] (setting [6]) and 38.1 ± 5.1% in test [1] (setting [7]).
On to `OC[C@H]1O[C@@H](O[C@@H]2OC=C[C@H]3[C@H](O)[C@@H]4O[C@]4(CO)[C@@H]23)[C@H](O)[C@@H](O)[C@@H]1O` [catalpol], for which the induction of apoptosis result (in the test on HL260 cell (setting [8]); in test [1] (setting [8])) was “able to induce apoptosis” throughout. Further, the “protein expression of gene bcl22” value in the test with bcl22 was “obviously lowered”.

Values taken from patent US9770479B2, “Extract of Rehmannia glutinasa Libosch for reducing blood sugar, reducing blood fat, treating leukemia, and preparation method and uses thereof” (priority 2007, dated 2017).
